Results published in patent US20080300182A1, “Eye disease treating agent and method for treating eye disease” (NIDEK CO., LTD., priority 2005, published 2008).
Ends that are not written are not given here.

Legend:
cultured rat Muller cell = experiment: IL-6 production acceleration effect in cultured Muller cell (Test Example 1; IL-6 measured by B9 cell bioassay); assay type: cell-based; details: 24 hours after addition of PACAP 38 (10^−12 M, 10^−9 M to 10^−6 M), vs no addition, p<0.01
Description: Wister/ST rats of 14 days of age (20 animals) were sacrificed by bleeding through the cutting of abdominal aorta under diethyl ether anesthesia. The 40 eyeballs were immediately enucleated and soaked in Dulbecco's modified minimum essential medium (DMEM) containing 25 mM HEPES and antibiotics (penicillin 100 U/ml, streptomycin 100 μg/ml, amphotericin B 0.25 μg/ml), one night at room temperature under shade. Next, the eyeballs were transferred into DMEM containing 0.1% trypsin and 70 U/ml collagenase and incubated at 37° C. for 60 minutes. Thereafter, retinas were removed from the eyeballs and transferred into DMEM supplemented with antibiotics and 10% FBS (medium for culturing use) (8 retinas/10 ml DMEM). The retinas were dispersed and suspended until they became small aggregates through the pipetting using a Pasteur pipette having thinned tip. This cell suspension was seeded onto a polystyrene dish (Asahi Techno Glass) and cultured by keeping at 37° C. under an environment of 5% CO2/95% air. […]
The IL-6 concentration in the thus recovered Muller cell culture supernatant was measured using B9 cell which is a hybridoma sub-clone of an IL-6-dependent mouse. […] Regarding the bioassay of IL-6, growth of B9 cell was determined as the fluorescence intensity by Alamar Blue.

[1] = system: Muller cell of the retina; experiment: IL-6 expression in retinal tissue after administration into the vitreous body, anti-IL-6 immunostaining (Test Example 3); assay type: in vivo, rat; details: 10^−11 mol PACAP
Description: The PACAP 38 was dissolved in sterile physiological saline to a concentration of 3.3 nmol/ml. This was stored under ice-cooling until just before the administration.
Male Wister/ST rats of 8 weeks of age were used in this test. After anesthesia by intraperitoneal administration of pentobarbital sodium, 3 μl per one eye of the administration liquid was injected from about 1 mm behind the limbus using a Hamilton glass syringe equipped with a 30G needle, that is, the liquid was injected into the vitreous body in such a manner that 10^−11 mol of PACAP reached the retina. After 1, 2, 3 and 7 days of the PACAP administration, each animal was sacrificed by bleeding through the cutting of abdominal aorta under diethyl ether inhalation anesthesia, and then both eyeballs were enucleated, and fixed with ice-cold 4% paraformaldehyde-0.1 M phosphate buffer (pH 7.4). The fixed eyeballs were subjected to sucrose replacement and then freeze-embedded to prepare frozen sections of 10 μm in thickness. By applying fluorescence immunostaining to each of the frozen sections using an anti-IL-6 antibody, expression of IL-6 in the retina was observed.

retinal ganglion cell [2] = experiment: Kainic acid-induced retinal ganglion cell death model, number of cells remaining in the ganglion cell layer (Test Example 4); assay type: in vivo, rat
Description: Retinal nerve protecting effect was examined using a kainic acid-induced retinal ganglion cell death animal model.
Male Wister/ST rats of 8 weeks of age were used in the test. After anesthesia by intraperitoneal administration of pentobarbital sodium, PACAP 38 (10 μmol) dissolved in sterile physiological saline or the administration solvent (physiological saline) as the negative control was injected once into the vitreous body in the same manner as in Test Example 3. Two days after the PACAP administration, kainic acid (5 nmol) was injected once into the vitreous body of each animal under anesthesia by a mixed liquid of ketamine and seractal. 7 days after the kainic acid administration, all animals were sacrificed by bleeding through the cutting of abdominal aorta under diethyl ether inhalation anesthesia and their eyeballs were enucleated. The enucleated eyeballs were fixed by soaking in a 1% formaldehyde-1.25% glutaraldehyde mixed fixing liquid. The fixed eyeballs were embedded in paraffin, and then retinal tissue sections of 4 μm in thickness traversing the optic disc were prepared and subjected to hematoxylin eosin staining. Effect of PACAP was judged by counting the number of cells remaining in the ganglion cell layer within a region of from 0.5 to 1.7 mm from the optic disc of each tissue specimen. […]

retinal ganglion cell [3] = experiment: Kainic acid-induced retinal ganglion cell death model, retinal tissue pNF-H content by sandwich ELISA (Test Example 5); assay type: in vivo, rat; details: 7 days after exposure
Source text: In order to clarify whether or not the IL-6 which is expressed in a delayed manner in Muller cell (Test Example 3) is concerned in the retinal ganglion cell death inhibitory effect of PACAP confirmed in Test Example 4, this was verified using the same animal model and using neurofilament (phosphorylated neurofilament-H; pNF-H) protein in the retinal tissue as the index. It is known that pNF-H is a protein which is specifically expressed in the retinal ganglion cell, and that the content of this protein in the retinal tissue can be used as a quantitative index for estimating degree of the retinal ganglion cell death.
A group in which 10 μmol of PACAP 38 is injected into the vitreous body 2 days before the kainic acid exposure in the same manner as in Test Example 4 (pretreatment group) and another group in which the same amount of PACAP is injected simultaneously with kainic acid (simultaneous treatment group) were set up as the test groups. The retinal tissue was collected 7 days after the kainic acid exposure, and the pNF-H protein was extracted. Amount of the pNF-H protein in retinal tissue was measured by the sandwich ELISA.

Substance: pituitary adenylate cyclase-activating polypeptide (HSDGIFTDSYSRYRKQMAVKKYLAAVLGKRYKQRVKNK; ends and bridges not checked; listed as Ovis sp.) [PACAP 38]
- IL-6 concentration in the culture liquid (cultured rat Muller cell): significantly increased
- Expression of IL-6 in the retina ([1]; 1 day after intravitreal administration): not found
- IL-6-positive cell in the retina ([1]; 2 days after intravitreal administration): frequently observed
- IL-6-positive cell in the retina ([1]; 3 days after intravitreal administration): frequently observed
- Expression of IL-6 in the retina ([1]; 7 days after intravitreal administration): hardly observed
- Average value of the number of cells remaining in the ganglion cell layer (retinal ganglion cell [2]; PACAP 38 (10 μmol) intravitreal 2 days before kainic acid (5 nmol), 7 days after kainic acid, 0.5 to 1.7 mm from optic disc): 34.8 cells/mm
- inhibition of the reduction of the number of cells caused by kainic acid (retinal ganglion cell [2]; PACAP 38 (10 μmol) intravitreal 2 days before kainic acid, vs physiological saline control, p<0.05): found with a significance
- reduction of the amount of pNF-H protein in the retinal tissue induced by kainic acid (retinal ganglion cell [3]; pretreatment group: 10 μmol PACAP 38 intravitreal 2 days before kainic acid, vs saline, p<0.01): inhibited with a significance
- effect to inhibit reduction of the amount of pNF-H (retinal ganglion cell [3]; simultaneous treatment group: 10 μmol PACAP 38 injected simultaneously with kainic acid): completely absent
